Consider 22 molecules from ChEMBL document CHEMBL1134228, “Structure-activity analysis of truncated orexin-A analogues at the orexin-1 receptor” (Bioorg Med Chem Lett, 2001).

Calls of active or inactive are those of the source. No cut-off for these calls is given here.

For one test, the system named is CHO. Put plainly: Percentage response for agonist like activity at 10 uM, relative to maximal orexin-A induced response in CHO cells was determined; Inactive. As to conditions: Cricetulus griseus. In kind it is functional, cell-based.
Take `CC[C@H](C)[C@H](NC(=O)CNC(=O)[C@H](C)NC(=O)[C@H](C)NC(=O)[C@H](Cc1c[nH]cn1)NC(=O)[C@H](CC(N)=O)NC(=O)CNC(=O)[C@H](C)NC(=O)CNC(=O)[C@H](Cc1c[nH]cn1)NC(=O)[C@H](CC(C)C)NC(=O)[C@H](CC(C)C)NC(=O)[C@H](CCC(=O)O)NC(=O)[C@H](Cc1ccc(O)cc1)NC(=O)[C@H](CC(C)C)NC(=O)[C@@H](N)CCCN=C(N)N)C(=O)N[C@@H](CC(C)C)C(=O)N[C@@H](C(=O)N[C@@H](CC(C)C)C(N)=O)[C@@H](C)O`: the result was inactive. Same read-out and setting: in the case of H-GILTL-NH2 it was “inactive”.

Another test relates to CHO. In words: Percentage response for agonist like activity at 10 uM, relative to maximal orexin-A induced response in CHO cells was determined. The test is classed as functional, Cricetulus griseus.
Details: not given
`CC[C@H](C)[C@H](NC(=O)[C@@H](C)NC(=O)[C@H](C)NC(=O)[C@H](C)NC(=O)[C@H](Cc1c[nH]cn1)NC(=O)[C@H](CC(N)=O)NC(=O)CNC(=O)[C@H](C)NC(=O)CNC(=O)[C@H](Cc1c[nH]cn1)NC(=O)[C@H](CC(C)C)NC(=O)[C@H](CC(C)C)NC(=O)[C@H](CCC(=O)O)NC(=O)[C@H](Cc1ccc(O)cc1)NC(=O)[C@H](CC(C)C)NC(=O)[C@@H](N)CCCN=C(N)N)C(=O)N[C@@H](CC(C)C)C(=O)N[C@H](C(=O)N[C@@H](CC(C)C)C(N)=O)[C@@H](C)O` displayed an Activity of 15%.

In the case of H-ELLHGAGNHAAGILTL-NH2, the Activity is listed as 13%.

On to H-LLHGAGNHAAGILTL-NH2, for which the Activity turned out to be 16%.

The molecule H-RAYELLHGAGNHAAGILTL-NH2 registered an Activity of 71%. On the same count and under the same terms, in the case of H-RLYEALHGAGNHAAGILTL-NH2 it was 60%; in that of H-RLYELAHGAGNHAAGILTL-NH2, 37%.

In the case of H-RLYELLHGAGNAAAGILTL-NH2, the Activity is on record as 61%.

On to H-RLYELLHGAGNHAAGIATL-NH2, for which the Activity came to 12%. Take H-RLYELLHGAGNHAAGILAL-NH2: the Activity turned out to be 39%.

H-RLYELLHGAGNHAAGILTA-NH2 registered an Activity of 15%. H-YELLHGAGNHAAGILTL-NH2 had an Activity of 40%.

The test system of another test is CHO. In words: Percentage response at 10 uM, relative to maximal orexin-A induced response; Inactive. The test is classed as functional, cell-based. As to conditions: Cricetulus griseus.
In the case of H-RLYELLHGAGNHAAGALTL-NH2, the outcome was inactive.

In another test the target is T1, Orexin/Hypocretin receptor type 1 (Homo sapiens) (UniProt O43613).
T1 sequence (whole entry): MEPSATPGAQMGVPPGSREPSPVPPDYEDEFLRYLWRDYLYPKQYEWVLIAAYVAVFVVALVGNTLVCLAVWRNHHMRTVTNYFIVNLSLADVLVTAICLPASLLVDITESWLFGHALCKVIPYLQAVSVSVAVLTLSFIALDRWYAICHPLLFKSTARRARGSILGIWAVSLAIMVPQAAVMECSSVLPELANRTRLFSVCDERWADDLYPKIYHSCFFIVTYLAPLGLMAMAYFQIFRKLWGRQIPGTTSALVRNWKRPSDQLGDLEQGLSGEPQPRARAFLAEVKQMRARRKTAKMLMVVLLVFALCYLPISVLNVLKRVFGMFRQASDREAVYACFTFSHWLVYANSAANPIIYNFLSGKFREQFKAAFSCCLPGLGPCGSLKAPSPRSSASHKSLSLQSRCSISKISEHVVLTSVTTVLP
Put plainly: Compound was tested for antagonist activity expressed as percentage response at 10 uM, relative to maximal orexin-A induced response against OX1 receptor; IA is Inactive. The test is classed as functional.
Details: not given
With H-GNHAAGILTL-NH2, the outcome was inactive.

The target of a further test is T2, Orexin/Hypocretin receptor type 1 (Homo sapiens, UniProt O43613).
T2 sequence (O43613 whole entry): T1 sequence (whole entry)
Put plainly: Binding affinity to Orexin receptor type 1 was determined using laser scanning cytometry.
Details: not given
On to `CC[C@H](C)[C@H](NC(=O)CNC(=O)[C@H](C)NC(=O)[C@H](C)NC(=O)[C@H](Cc1cnc[nH]1)NC(=O)[C@H](CC(N)=O)NC(=O)CNC(=O)[C@H](C)NC(=O)CNC(=O)[C@H](Cc1cnc[nH]1)NC(=O)[C@H](CC(C)C)NC(=O)[C@H](CC(C)C)NC(=O)[C@H](CCC(=O)O)NC(=O)[C@H](Cc1ccc(O)cc1)NC(=O)[C@H](CC(C)C)NC(=O)[C@@H](N)CCCNC(=N)N)C(=O)N[C@@H](CC(C)C)C(=O)N[C@H](C(=O)N[C@@H](CC(C)C)C(N)=O)[C@@H](C)O`, for which the Ki (commonly the dissociation constant of the complex between target and ligand, obtained from inhibition or displacement) is 269 nM. The same measure, in the same setting: in the case of H-ELLHGAGNHAAGILTL-NH2 it was 66100 nM.

System in a further test: not listed separately
Put plainly: Functional potency was determined by concentration required for activation of OX1 (Orexin-1) receptor expressed in chinese hamster ovary cells (CHO) and increasing the intracellular calcium concentration. In kind it is cell-based. As to conditions: Cricetulus griseus. On the technique in general: Calcium assays in cells follow changes in intracellular calcium, usually with a dye or a luminescent sensor.
As for `CC[C@H](C)[C@H](NC(=O)CNC(=O)[C@H](C)NC(=O)[C@H](C)NC(=O)[C@H](Cc1cnc[nH]1)NC(=O)[C@H](CC(N)=O)NC(=O)CNC(=O)[C@H](C)NC(=O)CNC(=O)[C@H](Cc1cnc[nH]1)NC(=O)[C@H](CC(C)C)NC(=O)[C@H](CC(C)C)NC(=O)[C@H](CCC(=O)O)NC(=O)[C@H](Cc1ccc(O)cc1)NC(=O)[C@H](CC(C)C)NC(=O)[C@@H](N)CCCNC(=N)N)C(=O)N[C@@H](CC(C)C)C(=O)N[C@H](C(=O)N[C@@H](CC(C)C)C(N)=O)[C@@H](C)O`, the EC50 (usually the concentration giving half of the maximal effect) was 355 nM. Turning to H-ALYELLHGAGNHAAGILTL-NH2, the EC50 is 347 nM.

Consider H-RLAELLHGAGNHAAGILTL-NH2, for which the EC50 was 776 nM. Same read-out and setting: in the case of H-RLYALLHGAGNHAAGILTL-NH2 it was 195 nM. Consider H-RLYELLAGAGNHAAGILTL-NH2, for which the 50% effective concentration (EC50) was 1290 nM. Same read-out and setting: in the case of H-RLYELLHAAGNHAAGILTL-NH2 it was 646 nM; in that of H-RLYELLHGAANHAAGILTL-NH2, 832 nM.
